Common to all, as to assay type: in vivo
For assay [1], the system named is C. difficile (ATCC 43596 strain). The following applies: Example 5B.
The test system of assay [2] is C. difficile (ATCC 43596). The following applies: Example 5C.
Assay [3] concerns C. difficile (ATCC 43596, strain 545).
Where [4] appears, read: Example 5E, vancomycin 20 mg/kg.
Setting [5] is: Example 5E, vancomycin 20 mg/kg BID × 5 days.

`CN[C@H](CC(C)C)C(=O)N[C@H]1C(=O)N[C@@H](CC(N)=O)C(=O)N[C@H]2C(=O)N[C@H]3C(=O)N[C@H](C(=O)N[C@H](C(=O)O)c4cc(O)cc(O)c4-c4cc3ccc4O)[C@H](O)c3ccc(c(Cl)c3)Oc3cc2cc(c3O[C@@H]2O[C@H](CO)[C@@H](O)[C@H](O)[C@H]2O[C@H]2C[C@](C)(N)[C@H](O)[C@H](C)O2)Oc2ccc(cc2Cl)[C@H]1O` [Vancomycin]: the “% mortality” value in assay [1] (37 days, vancomycin 20 mg/kg PO BID × 5 days, goat polyclonal Abs 1 mL/hamster, PA-38 + PA-41 50, 50 mg/kg, PA-39 + PA-41 50, 40 mg/kg IP Q2d × 4) worked out at 88%. Moreover, in assay [1] (doses as Table 2, 8 animals), the “number of hamster deaths, day of study 15” value worked out at 1; the “number of hamster deaths, day of study 18” value was determined as 5; the “number of hamster deaths, day of study 19” value is reported as 1. For the same compound, the mean body weights entry in assay [1] (first week after infection) is “declined significantly during the first week after infection”. Besides, the “hamsters found dead between Days 15 and 19” value in assay [1] (vancomycin 20 mg/kg BID Days 1-5) was “seven of eight”. In assay [2] (40 days, vancomycin 20 mg/kg PO BID × 5 days, mAbs 50 mg/kg (combination 50, 50) IP Q2d × 4, 7 hamsters), the “% mortality” value amounted to 100%. For the same compound, in assay [2] (doses as Table 4), the “number of hamster deaths, day of study 12” value is recorded as 1; the “number of hamster deaths, day of study 14” value worked out at 2; the “number of hamster deaths, day of study 15” value is 1; the “number of hamster deaths, day of study 18” value worked out at 1. The “number of hamster deaths, day of study 19” value in assay [2] (doses as Table 4) is 2. For the same compound, the “mean body weights over the study” value in assay [3] (Example 5E, to day 39) was “decreased during the first week post-infection and then rebounded”. Also, in assay [3] (setting [4]), the “Day 40 Survival” value was 0% and the “Median Survival” value worked out at 20 days. Also, in assay [3] (setting [5]), the “% mortality” value is on record as 100%; the “number of hamster deaths, day of study 11 to 14” value came out at 1; the “number of hamster deaths, day of study 18 to 20” value turned out to be 5; the “number of hamster deaths, day of study 22” value is on record as 2. Also, in assay [3] (in vivo), the “cecal C. difficile, mean CFU” value stood at 6.01±0.93 log10.

Source of the values: patent US20150175681A1 (priority 2010, published 2015).
